Test results reported in US10695321B2, “Use of glycopyrrolate for treating tachycardia” (Heptares Therapeutics Limited, priority 2011, dated 2020).

Assay: Sealed storage of micronised glycopyrrolate batches, physical changes and repeated particle sizing
Type: physicochemical
Details: sealed storage for several weeks
Text: Batches of micronised glycopyrrolate were obtained and, following sealed storage for several weeks, the physical changes of the material from fine cohesive powders to solid agglomerates were observed.
The following section summarises the tests conducted on reported batches of glycopyrrolate received following micronisation: […]

Row | d50 on repeated particle sizing on storage (micronised powder) | SMILES | Physical state of powder on storage
1 | – | C[N+]1(C)CCC(OC(=O)C(O)(c2ccccc2)C2CCCC2)C1 (centres unmarked) [Batch A, glycopyrrolate] | soft lumps of material were found in bulk powder
2 | 51 μm | C[N+]1(C)CCC(OC(=O)C(O)(c2ccccc2)C2CCCC2)C1 (centres unmarked) [Batch C, glycopyrrolate] | large hard lumps of material were found in bulk powder
3 | – | C[N+]1(C)CCC(OC(=O)C(O)(c2ccccc2)C2CCCC2)C1 (centres unmarked) [Remicronised Batch C, glycopyrrolate] | only soft lumps of material were found in bulk powder
4 | – | C[N+]1(C)CCC(OC(=O)C(O)(c2ccccc2)C2CCCC2)C1 (centres unmarked) [Batch B, glycopyrrolate] | large hard lumps of material were found
